According to ChEMBL document CHEMBL1201862, “PubChem BioAssay data set” (2004):
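Compound exposure: 48 hours, 5 concentrations, 96-well plates. Here, GI50 denotes the concentration required for 50% inhibition of growth.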 Calls of active or inactive are those of the source. No stated cut-off is given here; in the data, active = GI50 up to about 1.1 µM and inactive = higher.

How the values were obtained:
Test in all cases: growth of human tumour cells (NCI), 48 h
NCI/ADR-RES = system: NCI/ADR-RES
OVCAR-4 = system: OVCAR-4
OVCAR-8 = system: OVCAR-8
MDA-MB-231 = system: MDA-MB-231
SNB-19 = system: SNB-19
UACC-257 = system: UACC-257
HCT-116 = system: HCT-116
UACC-62 = system: UACC-62
MDA-N = system: MDA-N
Hs-578T = system: Hs-578T
SK-MEL-2 = system: SK-MEL-2
NCI-H226 = system: NCI-H226
K562 = system: K562
ACHN = system: ACHN
A549 = system: A549
SK-OV-3 = system: SK-OV-3
HCT-15 = system: HCT-15
SF-295 = system: SF-295
SR = system: SR
RXF 393 = system: RXF 393

Row | Compound | GI50 (NCI/ADR-RES) | GI50 (OVCAR-4) | GI50 (OVCAR-8) | GI50 (MDA-MB-231) | GI50 (SNB-19) | GI50 (UACC-257) | GI50 (HCT-116) | GI50 (UACC-62) | GI50 (MDA-N) | GI50 (Hs-578T) | GI50 (SK-MEL-2) | GI50 (NCI-H226) | GI50 (K562) | GI50 (ACHN) | GI50 (A549) | GI50 (SK-OV-3) | GI50 (HCT-15) | GI50 (SF-295) | GI50 (SR) | GI50 (RXF 393)
1 | Cc1cccc(N/C(=C(/C(Cl)=C(Cl)Cl)[N+](=O)[O-])n2nnc3ccccc32)c1 | 19.7 µM (inactive) | 19.5 µM (inactive) | 16.5 µM (inactive) | 13.3 µM (inactive) | 18.2 µM (inactive) | 22 µM (inactive) | 18.9 µM (inactive) | 15.5 µM (inactive) | 23.5 µM (inactive) | 4.91 µM (inactive) | 19.1 µM (inactive) | 12.9 µM (inactive) | 35 µM (inactive) | 24.3 µM (inactive) | 18 µM (inactive) | 21.3 µM (inactive) | 18.4 µM | 16.9 µM (inactive) | – | –
2 | COc1ccc2nc(-c3ccccc3)cc(OCC(=O)O)c2c1 | > 100 µM (inactive) | – | > 100 µM (inactive) | > 100 µM (inactive) | > 100 µM (inactive) | > 100 µM (inactive) | > 100 µM (inactive) | > 100 µM (inactive) | > 100 µM (inactive) | > 100 µM (inactive) | > 100 µM (inactive) | > 100 µM (inactive) | > 100 µM (inactive) | > 100 µM (inactive) | > 100 µM (inactive) | > 100 µM (inactive) | > 100 µM | > 100 µM (inactive) | > 100 µM (inactive) | –
3 | COC(=O)c1nsc(OC)c1Cl | > 100 µM (inactive) | > 100 µM (inactive) | > 100 µM (inactive) | > 100 µM (inactive) | > 100 µM (inactive) | > 100 µM (inactive) | > 100 µM (inactive) | > 100 µM (inactive) | > 100 µM (inactive) | > 100 µM (inactive) | – | > 100 µM (inactive) | > 100 µM (inactive) | – | > 100 µM (inactive) | > 100 µM (inactive) | > 100 µM | > 100 µM (inactive) | – | > 100 µM (inactive)
4 | COc1ccc2c(c1)SC1=Nc3sc4cc(OC)ccc4[n+]3CN12 | 99.3 µM (inactive) | – | 29.4 µM (inactive) | 29 µM (inactive) | 54.3 µM (inactive) | 30.4 µM (inactive) | 41 µM (inactive) | 11.7 µM (inactive) | 26.1 µM (inactive) | 44.8 µM (inactive) | 15.8 µM (inactive) | – | 4.16 µM (inactive) | 49.8 µM (inactive) | 29.1 µM (inactive) | 70.5 µM (inactive) | 86.1 µM | 31.3 µM (inactive) | 5.83 µM (inactive) | –
5 | CN1CCN(CCCN2c3ccccc3Sc3ccc(C(F)(F)F)cc32)CC1 | 11.6 µM (inactive) | 13.5 µM (inactive) | 15.9 µM (inactive) | – | 15.2 µM (inactive) | 2.6 µM (inactive) | 8.04 µM (inactive) | 2.1 µM (inactive) | 3.6 µM (inactive) | 4.35 µM (inactive) | 7.93 µM (inactive) | 15.5 µM (inactive) | – | 11.9 µM (inactive) | 12.6 µM (inactive) | 14.6 µM (inactive) | 7.1 µM | 9.89 µM (inactive) | – | –
6 | C=CCn1c(-c2ccc([N+](=O)[O-])cc2)csc1=N | 44.3 µM (inactive) | 42.8 µM (inactive) | 69.2 µM (inactive) | 16.8 µM (inactive) | > 100 µM (inactive) | 13.1 µM (inactive) | 37.3 µM (inactive) | 37.7 µM (inactive) | 29.1 µM (inactive) | > 100 µM (inactive) | 91.2 µM (inactive) | 41.6 µM (inactive) | 9.59 µM (inactive) | 83.2 µM (inactive) | 35.5 µM (inactive) | 54.7 µM (inactive) | 64.7 µM | 18.4 µM (inactive) | – | 7.43 µM (inactive)
7 | C=C1C(=O)OC2/C=C(\C)C(=O)CC3OC(C)(C)OC3(C)CC(OC(=O)/C(C)=C/C)C12 (stereo not drawn) | – | 17.6 µM (inactive) | 20.6 µM (inactive) | 23.6 µM (inactive) | > 80.9 µM (inactive) | 13.7 µM (inactive) | 7.43 µM (inactive) | 9.98 µM (inactive) | 13.2 µM (inactive) | 28.9 µM (inactive) | 28.1 µM (inactive) | 23.4 µM (inactive) | 4.05 µM (inactive) | 3.68 µM (inactive) | 48.8 µM (inactive) | 55.5 µM (inactive) | 4.49 µM | 42 µM (inactive) | 3.05 µM (inactive) | 12 µM (inactive)
8 | CCOC(=O)c1c[nH]c2cc3c(cc2c1=O)CCS3 | > 100 µM (inactive) | > 100 µM (inactive) | > 100 µM (inactive) | > 100 µM (inactive) | > 100 µM (inactive) | > 100 µM (inactive) | 37.9 µM (inactive) | > 100 µM (inactive) | > 100 µM (inactive) | > 100 µM (inactive) | > 100 µM (inactive) | 50.4 µM (inactive) | > 100 µM (inactive) | > 100 µM (inactive) | > 100 µM (inactive) | > 100 µM (inactive) | > 100 µM | > 100 µM (inactive) | – | 57.8 µM (inactive)
9 | CC(=O)CC(O)(C(F)(F)Cl)C(F)(Cl)Cl (stereo not drawn) | > 10 µM (inactive) | > 10 µM (inactive) | > 10 µM (inactive) | > 10 µM (inactive) | > 10 µM (inactive) | > 10 µM (inactive) | > 10 µM (inactive) | > 10 µM (inactive) | > 10 µM (inactive) | > 10 µM (inactive) | > 10 µM (inactive) | > 10 µM (inactive) | > 10 µM (inactive) | > 10 µM (inactive) | > 10 µM (inactive) | > 10 µM (inactive) | > 10 µM | > 10 µM (inactive) | – | > 10 µM (inactive)
10 | COC(=O)c1ccc(C)cc1CC1Cc2cc(C)ccc2C1=O (stereo not drawn) | > 100 µM (inactive) | > 100 µM (inactive) | > 100 µM (inactive) | > 100 µM (inactive) | > 100 µM (inactive) | > 100 µM (inactive) | > 100 µM (inactive) | > 100 µM (inactive) | > 100 µM (inactive) | > 100 µM (inactive) | > 100 µM (inactive) | > 100 µM (inactive) | > 100 µM (inactive) | > 100 µM (inactive) | > 100 µM (inactive) | > 100 µM (inactive) | > 100 µM | > 100 µM (inactive) | > 100 µM (inactive) | –
11 | COc1cc(C2c3cc4c(cc3C(O)C3CCC(=O)N23)OCO4)cc(OC)c1OC (stereo not drawn) | 53 µM (inactive) | – | 37.2 µM (inactive) | > 100 µM (inactive) | 29.9 µM (inactive) | > 100 µM (inactive) | 24.3 µM (inactive) | 40.8 µM (inactive) | 5.56 µM (inactive) | 34.5 µM (inactive) | 27 µM (inactive) | 37.5 µM (inactive) | 26.5 µM (inactive) | 40 µM (inactive) | 39.3 µM (inactive) | 80.2 µM (inactive) | 31 µM | 6.68 µM (inactive) | 39.9 µM (inactive) | –
12 | COc1cc2oc(=O)cc(C)c2cc1OC | > 100 µM (inactive) | > 100 µM (inactive) | > 100 µM (inactive) | > 100 µM (inactive) | > 100 µM (inactive) | > 100 µM (inactive) | > 100 µM (inactive) | > 100 µM (inactive) | > 100 µM (inactive) | > 100 µM (inactive) | > 100 µM (inactive) | > 100 µM (inactive) | > 100 µM (inactive) | > 100 µM (inactive) | > 100 µM (inactive) | > 100 µM (inactive) | > 100 µM | > 100 µM (inactive) | > 100 µM (inactive) | –
13 | CCCCCCCCCCCCCCCCCCN(C)CC(COC)OP(=O)([O-])OCC[N+](C)(C)C (stereo not drawn) | 17.9 µM (inactive) | 2.54 µM (inactive) | 3.27 µM (inactive) | – | 0.867 µM (active) | 9.08 µM (inactive) | 1.66 µM (inactive) | 3.05 µM (inactive) | 4.2 µM (inactive) | 4.93 µM (inactive) | 14.4 µM (inactive) | 4.32 µM (inactive) | 9.42 µM (inactive) | 1.91 µM (inactive) | 1.78 µM (inactive) | 11.2 µM (inactive) | 3.14 µM | 1.07 µM (active) | 0.341 µM (active) | 0.824 µM (active)
14 | COc1c(C=O)c2c(c(OC)c1OC)-c1ccc(OC)c(=O)cc1[C@@H](NC(C)=O)CC2 | – | 38.9 µM (inactive) | 0.0444 µM (active) | 0.352 µM (active) | 0.144 µM (active) | 0.0826 µM (active) | 0.0174 µM (active) | 0.0412 µM (active) | < 0.01 µM (active) | < 0.01 µM (active) | 0.0313 µM (active) | 0.583 µM (active) | < 0.0126 µM (active) | 1.17 µM (inactive) | 0.437 µM (active) | 1.2 µM (inactive) | 0.849 µM | 0.185 µM (active) | < 0.01 µM (active) | 0.148 µM (active)
15 | CN(C)Cc1nsc(N(C)C)n1 | > 100 µM (inactive) | > 100 µM (inactive) | > 100 µM (inactive) | > 100 µM (inactive) | > 100 µM (inactive) | > 100 µM (inactive) | > 100 µM (inactive) | > 100 µM (inactive) | > 100 µM (inactive) | > 100 µM (inactive) | > 100 µM (inactive) | > 100 µM (inactive) | > 100 µM (inactive) | > 100 µM (inactive) | > 100 µM (inactive) | > 100 µM (inactive) | > 100 µM | > 100 µM (inactive) | – | > 100 µM (inactive)
16 | Cc1ncc([N+](=O)[O-])n1CCNC(=O)Cn1ccnc1[N+](=O)[O-] | > 100 µM (inactive) | – | > 100 µM (inactive) | > 100 µM (inactive) | > 100 µM (inactive) | > 100 µM (inactive) | > 100 µM (inactive) | > 100 µM (inactive) | > 100 µM (inactive) | > 100 µM (inactive) | > 100 µM (inactive) | > 100 µM (inactive) | > 100 µM (inactive) | > 100 µM (inactive) | > 100 µM (inactive) | > 100 µM (inactive) | > 100 µM | > 100 µM (inactive) | > 100 µM (inactive) | –
